Assay results taken from article PMC7816587 (Food and Chemical Toxicology, 2021).

Experiment: Pharmacokinetic interactions between QPD and lopinavir in rats
Format: in vivo
Conditions: male, Sprague-Dawley, rat, plasma, po, 160 mg/kg

Cc1cccc(C)c1OCC(=O)N[C@@H](Cc1ccccc1)[C@@H](O)C[C@H](Cc1ccccc1)NC(=O)[C@H](C(C)C)N1CCCNC1=O [lopinavir]
Tmax: 8 h
AUC(0-inf) (AUC(0-inf) of lopinavir, rats, water + lopinavir 160 mg/kg i.g. (control group)): 6090 ng·h/mL
half-life (t1/2 of lopinavir, rats, water + lopinavir 160 mg/kg i.g. (control group)): 1.9 h
